Among the test systems are SR; COLO 205; 786-0; HT-29; M14; TK-10; SF-295; SF-268; HOP-92; OVCAR-4; UACC-62; CCRF-CEM; UO-31; MOLT-4; LOX IMVI; NCI-H522; SK-MEL-28; EKVX; HOP-62.
Common to all, as to experiment: inhibition of tumour cell growth, NCI panel, 48 h

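Grown in 96-well plates, cells were treated for 48 hours with each compound at five concentrations. Insufficient inhibition: endpoint recorded as highest concentration tested. Here, GI50 denotes the concentration required for 50% inhibition of growth.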 The source made the active and inactive calls. Rule as the data show it: active = GI50 up to about 1.1 µM and inactive = higher. Some results are limits rather than exact numbers.

Regarding `NCC(=O)Nc1ccc(Cl)cc1C(=O)c1ccc[nH]1`, the GI50 in the test on SR was 8.99 µM (inactive); in the test on COLO 205 it was > 86.1 µM (inactive); in the test on 786-0 it was > 83.4 µM (inactive); in the test on HT-29, 25.5 µM (inactive); in the test on M14 it was 99.3 µM (inactive); in the test on TK-10, > 94.6 µM (inactive). In addition, the GI50 in the test with SF-295 was > 100 µM (inactive); in the test with SF-268 it was 49 µM (inactive); in the test with HOP-92 it was 15.4 µM (inactive); in the test on OVCAR-4, 21.7 µM (inactive); in the test on UACC-62 it was > 68.5 µM (inactive); in the test on CCRF-CEM, 3.42 µM (inactive). The GI50 in the test with UO-31 is 21.7 µM (inactive); with MOLT-4 it was 35.8 µM (inactive); in the test with LOX IMVI, 9.95 µM (inactive); in the test on NCI-H522 it was 11.5 µM (inactive); with SK-MEL-28, > 93.5 µM (inactive); with EKVX, > 100 µM (inactive). For the same molecule, the GI50 in the test on HOP-62 was > 94.2 µM (inactive).
Consider `O=C(O)CSc1ccccc1C(=O)O`, for which the GI50 in the test with SR is > 100 µM (inactive); with COLO 205 it was > 100 µM (inactive); with 786-0 it was > 100 µM (inactive); with HT-29 it was > 100 µM (inactive); with M14 it was > 100 µM (inactive); in the test on TK-10 it was 22.8 µM (inactive). The GI50 in the test with SF-295, in the test on SF-268, in the test with HOP-92, in the test on OVCAR-4, with UACC-62 and in the test on CCRF-CEM was > 100 µM (inactive) in each case. Besides, the GI50 with UO-31, in the test with MOLT-4, in the test on LOX IMVI, in the test on NCI-H522, in the test with SK-MEL-28 and with EKVX was > 100 µM (inactive) each time. Besides, the GI50 in the test on HOP-62 was > 100 µM (inactive).
Turning to `Cc1nc2c(N3CCCC3)nc(N3CCNCC3)nc2nc1NCc1ccccc1`, the GI50 was 2.84 µM (inactive) in the test with SR; 1.24 µM (inactive) in the test on COLO 205; 4.9 µM (inactive) in the test on 786-0; 2.41 µM (inactive) with HT-29; 1.94 µM (inactive) in the test with M14; 4.88 µM (inactive) in the test with TK-10. The GI50 is 2.04 µM (inactive) in the test with SF-295; 3.85 µM (inactive) in the test with SF-268; 2.33 µM (inactive) with HOP-92; 7.73 µM (inactive) in the test on OVCAR-4; 2.79 µM (inactive) with UACC-62; 2.4 µM (inactive) with CCRF-CEM. The GI50 in the test on UO-31 is 2.41 µM (inactive); with MOLT-4 it was 2.52 µM (inactive); with LOX IMVI, 1.65 µM (inactive); in the test with NCI-H522, 1.65 µM (inactive); with SK-MEL-28 it was 1.95 µM (inactive); with EKVX, 8.11 µM (inactive). Besides, the GI50 in the test with HOP-62 was 2.94 µM (inactive).
On to `C#CC(O)/C=C/C(O)CCCC(O)CC#CC(O)C#CC(O)CCCC(O)/C=C/CCCCCC(=O)CCCCCCCCCCCCCC(O)C(O)C#CC(=O)O` (stereo not given), for which the GI50 was 13.1 µM (inactive) with SR; > 50 µM (inactive) with COLO 205; > 50 µM (inactive) in the test on 786-0; 19.3 µM (inactive) in the test with HT-29; > 50 µM (inactive) with M14; > 50 µM (inactive) with TK-10. For the same molecule, the GI50 is > 50 µM (inactive) in the test on SF-295; > 50 µM (inactive) in the test on SF-268; 13.5 µM (inactive) in the test on HOP-92; 9.02 µM (inactive) in the test with OVCAR-4; > 50 µM (inactive) in the test on UACC-62; 14.3 µM (inactive) with CCRF-CEM. Moreover, the GI50 in the test on UO-31 is > 50 µM (inactive); in the test on MOLT-4, 14 µM (inactive); in the test with LOX IMVI, 12.8 µM (inactive); with NCI-H522, 8.89 µM (inactive); in the test on SK-MEL-28, 12 µM (inactive); in the test with EKVX it was > 50 µM (inactive). Also, in the test with HOP-62, the GI50 is > 50 µM (inactive).
In the case of `O=C1c2cscc2C(=O)C1(O)O`, the GI50 is 19.1 µM (inactive) in the test on SR; 19.2 µM (inactive) in the test with COLO 205; 61.5 µM (inactive) with 786-0; 70 µM (inactive) with HT-29; 22.2 µM (inactive) in the test with M14; > 100 µM (inactive) with TK-10. Further, the GI50 in the test on SF-295 is > 100 µM (inactive); in the test on SF-268, > 100 µM (inactive); in the test on HOP-92, 31.7 µM (inactive); in the test with OVCAR-4, 25.6 µM (inactive); in the test on UACC-62, > 100 µM (inactive); in the test on CCRF-CEM, 23.7 µM (inactive). Also, the GI50 in the test on UO-31 was 27.3 µM (inactive); in the test on MOLT-4, 22.5 µM (inactive); in the test with LOX IMVI, > 100 µM (inactive); in the test with NCI-H522, 18.7 µM (inactive); with SK-MEL-28, > 100 µM (inactive); in the test on EKVX, 36.1 µM (inactive). Moreover, the GI50 in the test on HOP-62 is > 100 µM (inactive).
With `C#CCNC(Cc1ccccc1)C(=O)O` (stereo not given), the GI50 in the test on SR, with COLO 205, in the test on 786-0, with HT-29, in the test with M14 and with TK-10 was > 100 µM (inactive) each time. The GI50 with SF-295, in the test with SF-268, in the test on HOP-92, with OVCAR-4, in the test with UACC-62 and in the test with CCRF-CEM was > 100 µM (inactive) throughout. For the same molecule, the GI50 in the test with UO-31, in the test with MOLT-4, in the test with LOX IMVI, in the test on NCI-H522, in the test on SK-MEL-28 and in the test with EKVX was > 100 µM (inactive) in each case. Further, the GI50 with HOP-62 was > 100 µM (inactive).
For the molecule `Cc1sc2[nH]c(=O)oc(=O)c2c1C`, the GI50 is 37.8 µM (inactive) in the test on SR; 59 µM (inactive) with COLO 205; 70.3 µM (inactive) with 786-0; > 71.9 µM (inactive) in the test with HT-29; > 61.9 µM (inactive) with M14; > 100 µM (inactive) in the test with TK-10. Also, the GI50 in the test with SF-295 was > 77.8 µM (inactive); with SF-268, 53.8 µM (inactive); in the test with HOP-92 it was > 100 µM (inactive); with OVCAR-4, 67.6 µM (inactive); in the test with UACC-62 it was 52.1 µM (inactive); in the test on CCRF-CEM, 39.6 µM (inactive). Moreover, the GI50 was 33 µM (inactive) in the test with UO-31; 48.5 µM (inactive) in the test with MOLT-4; 44.6 µM (inactive) with LOX IMVI; 26 µM (inactive) in the test on NCI-H522; > 71.8 µM (inactive) in the test on SK-MEL-28; > 100 µM (inactive) with EKVX. In addition, the GI50 in the test on HOP-62 was 72.8 µM (inactive).
Regarding `O=[N+]([O-])/C(Cl)=C(/C(Cl)=C(Cl)Cl)N1CCCCC1`, the GI50 was 3.16 µM (inactive) in the test on SR; 10 µM (inactive) in the test on COLO 205; 11.3 µM (inactive) in the test with 786-0; 14.9 µM (inactive) in the test with HT-29; 11.2 µM (inactive) with M14; 21.4 µM (inactive) in the test on TK-10. The GI50 was 23.7 µM (inactive) with SF-295; 11.9 µM (inactive) with SF-268; 16.1 µM (inactive) in the test on HOP-92; 13.8 µM (inactive) with OVCAR-4; 4.21 µM (inactive) in the test with UACC-62; 4.73 µM (inactive) with CCRF-CEM. The GI50 was 8.15 µM (inactive) in the test with UO-31; 3.27 µM (inactive) in the test with MOLT-4; 7.33 µM (inactive) with LOX IMVI; 6.44 µM (inactive) in the test on NCI-H522; 14.5 µM (inactive) with SK-MEL-28; 20.3 µM (inactive) in the test with EKVX. For the same molecule, in the test with HOP-62, the GI50 is 22.6 µM (inactive).
On to `NS(=O)(=O)c1ccc(/N=N/c2cnc(O)c(O)c2)cc1`, for which the GI50 in the test on SR is 29.6 µM (inactive); in the test with COLO 205, 95.3 µM (inactive); with 786-0, > 100 µM (inactive); in the test on HT-29, > 100 µM (inactive); in the test on M14, 81.3 µM (inactive); with TK-10, > 100 µM (inactive). Moreover, the GI50 is > 100 µM (inactive) in the test with SF-295; 43.2 µM (inactive) with SF-268; 81.7 µM (inactive) in the test on HOP-92; 50 µM (inactive) in the test on OVCAR-4; 43.1 µM (inactive) in the test on UACC-62; 19.6 µM (inactive) in the test with CCRF-CEM. Moreover, the GI50 was > 100 µM (inactive) in the test with UO-31; 54 µM (inactive) with MOLT-4; 91.2 µM (inactive) with LOX IMVI; 14.1 µM (inactive) in the test on NCI-H522; > 100 µM (inactive) in the test on SK-MEL-28; > 100 µM (inactive) with EKVX. Besides, the GI50 with HOP-62 is > 100 µM (inactive).
With `CC1=C2c3ccccc3N(S(=O)(=O)c3ccccc3)[C@H]2[C@H](C(=O)N2C3CC4CC[C@@]3(CS2(=O)=O)C4(C)C)CC1` (stereo not given in full), the GI50 with SR was 12.5 µM (inactive); in the test on COLO 205 it was 47.9 µM (inactive); with 786-0, 0.41 µM (active); in the test with HT-29 it was 17.6 µM (inactive); with M14, 64.4 µM (inactive); in the test on TK-10, 43.9 µM (inactive). For the same molecule, the GI50 was 1.71 µM (inactive) in the test on SF-295; 17.9 µM (inactive) with SF-268; 22.5 µM (inactive) in the test on HOP-92; 64 µM (inactive) with OVCAR-4; 9.55 µM (inactive) with UACC-62; 35.3 µM (inactive) with CCRF-CEM. The GI50 in the test with UO-31 is 9.06 µM (inactive); in the test with MOLT-4, 6.38 µM (inactive); with LOX IMVI, 23.6 µM (inactive); in the test on NCI-H522 it was 10.8 µM (inactive); in the test on SK-MEL-28 it was > 100 µM (inactive); in the test with EKVX it was 56.6 µM (inactive). In addition, the GI50 in the test on HOP-62 was 16.4 µM (inactive).
